Results reported in patent publication US20240209022A1, “NOVEL PEPTIDE HAVING ANTI-INFLAMMATORY AND TISSUE REGENERATIVE ACTIONS” (KOREA RESEARCH INSTITUTE OF BIOSCIENCE AND BIOTECHNOLOGY, priority 2020, published 2024).

Key:
[1] = test system: depression and anxiety model; assay: LPS-induced depression and anxiety model (TST, FST, EPM); format: in vivo, C57BL/6J mice; details: vs PBS buffer group; for immobility time in forced swim test / immobility time in tail suspension test: oral, LPS-induced; for Ifnγ mRNA expression in brain tissue (hippocampus) / Il-10 mRNA expression in brain tissue (hippocampus): RT-qPCR
Protocol: By Daehan Biolink, 7-week-old male C57BL/6J mice weighing 20-22 g were supplied, and the animals were sufficiently supplied with solid feed and water until the day of the experiment, acclimatized for 1 week while maintaining an environment with a temperature of 22° C. 2° C., a humidity of 55%±15%, and a 12-hour light/dark cycle, and then used in the experiment. From 3 days before inducing depression and anxiety, the peptide was dissolved in PBS buffer and orally administered to the mice by 150 μL per animal at the same time once a day. Amuc_1409 or PEP001, PEP002, PEP003, PEP004, or PEP005 was dissolved in PBS buffer at a concentration of 6.7 μM and then used, and novel tetrapeptides PEP006, PEP007, PEP008, PEP009, and PEP010 and novel tripeptides PEP011, PEP012, and PEP013 were each dissolved in PBS buffer at a concentration of 0.2 μg/150 μL and then used. On the 3rd day of peptide administration, lipopolysaccharide (LPS) dissolved in PBS buffer was intraperitoneally injected at a concentration of 0.8 mg/kg to induce depression and anxiety. Tail suspension test (TST) and forced swim test (FST) were conducted to analyze the effect on depression. As the TST, a tail suspension device was installed in an open white acrylic box of 20 cm×25 cm×30 cm size, and the mouse was suspended upside down at a height where the mouse's tail would not touch the floor, and then the time for which the mouse maintained immobility while observing in the same environment was measured for 6 minutes. […] Water at around 25° C. was filled in a transparent acrylic cylinder (45 cm depth×18 cm diameter) up to 30 cm from the bottom, the mouse was exposed to water, and the time for which the mouse maintained immobility while swimming was measured for 6 minutes. […] An elevated plus-maze (EPM) test was performed to analyze the effect on anxiety level. The EPM device consists of two open arms (50 cm×10 cm) and two […] (50 cm×10 cm) at a height of 50 cm from the floor, and the arms are connected by a central area of 10 cm×10 cm. At the start of the experiment, the mouse was placed in the center of the maze and the time for which the mouse stayed in the open arm was measured for a total of 5 minutes using a video camera, and the percentage of time spent in the open arm was calculated and recorded [(time spent in open arm/time spent in open and closed arms)×100]. In addition, in order to examine the anti-inflammatory activity according to the administration of Amuc_1409 and PEP001, PEP002, PEP003, PEP004, and PEP005 in an animal model of depression and anxiety, the expression of Ifnγ and Il-10 mRNA, which are major inflammatory genes related to depression, in brain tissue (hippocampus) was examined.

[2] = test system: full-thickness skin defect wound-induced model; assay: Full-thickness skin defect wound-induced model (tail); format: in vivo, C57BL/6J mice; details: 120 μM, 25 μL applied once a day for 28 days; vs vehicle
Protocol: In order to confirm the tissue regeneration efficacy of the novel peptides, an experiment was conducted using a wound-induced model induced by a full-thickness skin defect of mouse's tail. For a full-thickness skin defect wound-induced model, 9-week-old specific pathogen free (SPF) male C57BL/6J mice were anesthetized, and then in order to indicate full-thickness wounding, a full-thickness wound with a size of 10 mm×3 mm was made on the dorsal part of the mouse's tail, about 1.0 cm away from the base of the mouse's tail, using an aseptic dissection mass No. 10. Bleeding was stopped by compressing the wound, and the wound was covered with a film spray dressing (Cavilon, 3M). For 28 days from the day of wound induction, Amuc_1409 or PEP001 to PEP013 were each dissolved in vehicle (50% ethanol, 20% propylene glycol, 30% water) at a concentration of 120 μM and then applied to the wound site by 25 μL per animal once a day. For the control group, the same volume of vehicle (50% ethanol, 20% propylene glycol, 30% water) was applied to the wound site. The test was terminated on day 29 after wound induction. In order to observe the wound healing effect, the wound sites of animals in each test group were individually photographed using a digital camera at a constant height from the wound for 28 days at 7-day intervals from the day of wound induction, and the wound area was measured using the Image J Soft program.

| Molecule | immobility time in forced swim test [1] | immobility time in tail suspension test [1] | wound area [2] | wound size (visually confirmed) [2] | Ifnγ mRNA expression in brain tissue (hippocampus) [1] | Il-10 mRNA expression in brain tissue (hippocampus) [1] | time spent in the open arm, elevated plus-maze test [1] |
| --- | --- | --- | --- | --- | --- | --- | --- |
| RGAY (PEP007) | tended to decrease | decreased | significantly decreased | rapidly decreased | – | – | – |
| AIS [PEP013] | tended to decrease | decreased | significantly decreased | rapidly decreased | – | – | – |
| IGAY (PEP008) | tended to decrease | decreased | significantly decreased | rapidly decreased | – | – | – |
| AGAY (PEP006) | tended to decrease | decreased | significantly decreased | rapidly decreased | – | – | – |
| SGAY (PEP009) | tended to decrease | decreased | significantly decreased | rapidly decreased | – | – | – |
| AQS [PEP011] | tended to decrease | decreased | significantly decreased | rapidly decreased | – | – | – |
| VGAY (PEP010) | tended to decrease | decreased | significantly decreased | rapidly decreased | – | – | – |
| AVSSIKGAY (PEP001) | significantly decreased | significantly decreased | significantly decreased | rapidly decreased | significantly decreased | significantly increased | increased |
| AGS [PEP012] | tended to decrease | decreased | – | – | – | – | – |
| AVSSI (PEP002) | significantly decreased | significantly decreased | significantly decreased | rapidly decreased | significantly decreased | significantly increased | increased |
| KGAY (PEP003) | significantly decreased | significantly decreased | significantly decreased | rapidly decreased | significantly decreased | significantly increased | increased |
| AVS (AVSSIKGAY) [PEP004] | significantly decreased | significantly decreased | significantly decreased | rapidly decreased | significantly decreased | significantly increased | increased |
| GAY [PEP005] | significantly decreased | significantly decreased | significantly decreased | rapidly decreased | significantly decreased | significantly increased | increased |
| Amuc_1409: SEQ ID NO: 15, functional fragment obtained by eliminating the leader sequence from SEQ ID NO: 14; protein derived from Akkermansia muciniphila (protein, Amuc_1409_fragment, protein derived from Akkermansia muciniphila) IPESSVPAAAVSSIKGAYPNAGPIEWDSEMHGMERIYEAEFRINGFQFDVKIAPDGKIVRIKEEIAASSLPEAVRASVLKRYPGCRIKEAEKITEGELVRYKVEVADSRDDYDVLIAPDGNILHVDR | significantly decreased | significantly decreased | significantly decreased | rapidly decreased | decreased | increased | increased |
